Legend:
DGL [1] = experiment: DGL (MAG biosynthetic enzyme) activity assay, UPLC-MS/MS, jejunum epithelium protein isolates; type: biochemical, mouse; details: jejunum epithelium protein 50 μg
Procedure: (§1) Homogenized samples were centrifuged at 800 × g for 15 m at 4°C. The supernatant was collected in a 2.0 mL centrifuge tube and sonicated twice for 10 s. Samples underwent two sequential freeze thaw cycles using liquid N2. Samples were again centrifuged at 800 × g, 15 min, 4°C and the supernatant was collected. Total protein was then quantified via BCA assay and normalized between all samples. Protein isolations for each assay and each tissue were performed separately.
Substrate solutions were prepared by drying stock 19:2 DAG (20 nmol/reaction) under N2 steam (99.998% pure) and reconstituted in a solution of 50 mM Tris–HCl with 0.2% Triton x-100 (pH = 7.0). This solution was bath sonicated for 60 min at room temperature while protein samples were prepared. […] The products of the reaction were extracted via lipid extraction methods (see section “Lipid Extraction for Enzyme Assays”) and quantified via UPLC-MS/MS (see section “Quantitation of MAG Biosynthetic Enzyme Activity Assay Products”).
Lipids were extracted using liquid-liquid extraction with chloroform (2.0 mL) followed by 0.8 mL 0.2-micron ultra-purified water. […] Products were detected and quantified via UPLC-MS/MS techniques (see section “UPLC-MS/MS Detection of Analytes”). […]

DGL [2] = experiment: DGL activity assay, UPLC-MS/MS, lung protein isolates; type: biochemical, mouse; details: for DAG metabolism (normalized response): lung protein 50 μg
Procedure: as §1
Substrate solutions were prepared by drying stock 19:2 DAG (20 nmol/reaction) under N2 steam (99.998% pure) and reconstituted in a solution of 50 mM Tris–HCl with 0.2% Triton x-100 (pH = 7.0). This solution was bath sonicated for 60 min at room temperature while protein samples were prepared. […] In addition, the ABHD6 inhibitor, WWL 70 (10 μM), was added to lung protein isolates for the 10-minute room temperature incubation to ensure the product of interest was not metabolized ([Tchantchou and Zhang, 2013]). Dose-inhibition experiments included addition of the DGL inhibitor, THL [albeit not selective for DGL, see [Hoover et al. (2008)]; [DiPatrizio et al. (2015)]]. […] The products of the reaction were extracted via lipid extraction methods (see section “Lipid Extraction for Enzyme Assays”) and quantified via UPLC-MS/MS (see section “Quantitation of MAG Biosynthetic Enzyme Activity Assay Products”).
Lipids were extracted using liquid-liquid extraction with chloroform (2.0 mL) followed by 0.8 mL 0.2-micron ultra-purified water. […] Products were detected and quantified via UPLC-MS/MS techniques (see section “UPLC-MS/MS Detection of Analytes”).
Analytes were eluted at a flow rate of 0.4 mL/min and gradient: 80% methanol 0.0–0.5 min, 80–100% methanol 0.5–2.5 min, 100% methanol 2.5–3.0 min, 100–80% methanol 3.0–3.1 min, and 80% methanol 3.1–4.5 min. […] Lipids were quantified using a stable isotope serial dilution method detecting H^+ or Na^+ adducts of the molecular ions [M + H/Na]^+ in multiple reactions monitoring (MRM) mode (variable amounts of product 19:2 MAG versus fixed amount of internal standard [^2H5]-2-AG). […]

[3] = highest inhibitor concentration of range (1,000 nM)
[4] = lowest inhibitor concentration of range (3 nM)

CCCCCCCCCCC[C@@H](C[C@@H]1OC(=O)[C@H]1CCCCCC)OC(=O)[C@H](CC(C)C)NC=O [THL, tetrahydrolipstatin]
DGL activity (normalized response) (DGL [1]; [3]): 20.39 ± 6.65% | DGL activity (normalized response) (DGL [1]; [4]): 108.85 ± 6.19% | DAG metabolism (normalized response) (DGL [2]; [3]): 10.19 ± 0.29% | DAG metabolism (normalized response) (DGL [2]; [4]): 90.26 ± 9.07% | IC50 (DGL [2]; mouse lung protein isolates 50 μg, THL 3-1,000 nM, read-out: IC50, inhibition of DAG metabolism (DGL activity)): 74.6 nM

Source: PMC8317065, “UPLC-MS/MS Method for Analysis of Endocannabinoid and Related Lipid Metabolism in Mouse Mucosal Tissue” (Frontiers in Physiology, 2021)
